In patent publication US20260199483A1 (Bright Angel Therapeutics Inc., priority 2022, published 2026) one finds IC50 and MIC50 data, which are given here for 23 compounds.

Converted amounts (≈) assume the structure as drawn.

A word on the IC50: it is the point on the concentration scale where inhibition reaches its midpoint. For orientation: MIC50 means the lowest concentration that inhibits either 50% of growth or 50% of the strains tested, depending on the study.

T1 sequence (A0A1D8PKB4 entry or part of it): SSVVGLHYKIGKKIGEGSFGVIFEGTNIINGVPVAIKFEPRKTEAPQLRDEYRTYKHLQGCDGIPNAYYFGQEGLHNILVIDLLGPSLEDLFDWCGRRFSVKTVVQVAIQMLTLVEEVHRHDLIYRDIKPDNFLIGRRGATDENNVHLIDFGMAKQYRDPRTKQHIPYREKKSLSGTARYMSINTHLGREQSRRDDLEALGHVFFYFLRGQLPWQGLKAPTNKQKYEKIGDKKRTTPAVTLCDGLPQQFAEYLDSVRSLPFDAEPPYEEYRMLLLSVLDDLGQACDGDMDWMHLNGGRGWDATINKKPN

One assay concerns the target T1, purified recombinant Yck2 (Candida albicans, UniProt A0A1D8PKB4).
T1 construct: Yck2 residues 37-345 were PCR amplified from C. albicans genomic DNA; His6 (N); TEV protease site (N); made in house; host or cells: E. coli BL21(DE3)-Gold
Nature of the assay: HotSpot kinase assay. Type of assay: biochemical, C. albicans.
Conditions: not given
As for the experimental part: IC50s were determined using the in vitro HotSpot kinase assay (purified enzymes, ^33P-ATP, an appropriate substrate and 1 μM ATP). For enzyme inhibition assays, compounds were tested in range of ten concentrations from 10 uM to 0.0005 uM using purified recombinant Yck2. Reaction conditions were 1 uM ATP, one hour incubation with inhibitor, and kinase activity detected using 33-ATP phosphorylation of an appropriately selected peptide substrate.
Yck2 residues 37-345 were PCR amplified from C. albicans genomic DNA and subcloned into the vector pMCSG53, which codes for a N-terminal His6 tag, TEV protease site, followed by the Yck2 protein. E. coli BL21(DE3)-Gold competent cells were transformed with this plasmid and the Yck2 protein was purified using methodology previously described (Stogios et al., ACS Chem. Biol. 13, 1322-1332 (2018)).
For `Nc1nccc(-c2c(-c3ccc(F)cc3)ncn2C2CCN(C[C@](O)(Cn3cncn3)c3ccc(F)cc3F)CC2)n1` (single isomer, unassigned) [Compound I-33], the IC50 was 12.3 nM.

For the compound `OC(CN1CCC(NCc2ccc3c(-c4ccncc4)c(-c4ccc(F)cc4)nn3c2)CC1)(Cn1cncn1)c1ccc(F)cc1F` (centres unmarked) [Compound I-254, 2-(2,4-difluorophenyl)-1-(4-(((2-(4-fluorophenyl)-3-(pyridin-4-yl)pyrazolo[1,5-a]pyridin-6-yl)methyl)amino)piperidin-1-yl)-3-(1H-1,2,4-triazol-1-yl)propan-2-ol], the IC50 stood at 3.09 nM. On the same count and under the same terms, the figure for `Cn1cc(-c2ccncc2CNCCC(O)(Cn2cncn2)c2ccc(F)cc2F)c(-c2ccc(F)cc2)n1` (centres unmarked) [Compound I-3, 2-(2,4-difluorophenyl)-4-(((4-(3-(4-fluorophenyl)-1-methyl-1H-pyrazol-4-yl)pyridin-3-yl)methyl)amino)-1-(1H-1,2,4-triazol-1-yl)butan-2-ol] is 179 nM.

Take `Cn1cc(-c2ccnc3c2C(=O)N(CC2CCN(C[C@@](O)(Cn4cncn4)c4ccc(F)cc4F)CC2)C3)c(-c2ccc(F)cc2)n1` [Compound I-237, (R)-6-((1-(2-(2,4-difluorophenyl)-2-hydroxy-3-(1H-1,2,4-triazol-1-yl)propyl)piperidin-4-yl)methyl)-4-(3-(4-fluorophenyl)-1-methyl-1H-pyrazol-4-yl)-6,7-dihydro-5H-pyrrolo[3,4-b]pyridin-5-one]: the half-maximal inhibitory concentration (IC50) came out at 1.14 nM. Regarding `Nc1nccc(-c2c(-c3ccc(F)cc3)ncn2C2CCN(CC[C@@](O)(Cn3cncn3)c3ccc(F)cc3F)CC2)n1` [Compound I-55, (S)-4-(4-(5-(2-aminopyrimidin-4-yl)-4-(4-fluorophenyl)-1H-imidazol-1-yl)piperidin-1-yl)-2-(2,4-difluorophenyl)-1-(1H-1,2,4-triazol-1-yl)butan-2-ol], the IC50 is 8.41 nM. On the same count and under the same terms, the figure for `Cn1cc(-c2ccncc2COCC[C@](O)(Cn2cncn2)c2ccc(F)cc2F)c(-c2ccc(F)cc2)n1` [Compound I-235, (R)-2-(2,4-difluorophenyl)-4-((4-(3-(4-fluorophenyl)-1-methyl-1H-pyrazol-4-yl)pyridin-3-yl)methoxy)-1-(1H-1,2,4-triazol-1-yl)butan-2-ol] is 107 nM; for `Cn1cc(-c2ccncc2CNC2CCN(CC(O)(Cn3cncn3)c3ccc(F)cc3F)CC2)c(-c2ccc(F)cc2)n1` (centres unmarked) [Compound I-4, 2-(2,4-difluorophenyl)-1-(4-(((4-(3-(4-fluorophenyl)-1-methyl-1H-pyrazol-4-yl)pyridin-3-yl)methyl)amino)piperidin-1-yl)-3-(1H-1,2,4-triazol-1-yl)propan-2-ol] it is 178 nM; for `OC(CNCc1ccc2c(-c3ccncc3)c(-c3ccc(F)cc3)nn2c1)(Cn1cncn1)c1ccc(F)cc1F` (centres unmarked) [Compound I-152, 2-(2,4-difluorophenyl)-1-(((2-(4-fluorophenyl)-3-(pyridin-4-yl)pyrazolo[1,5-a]pyridin-6-yl)methyl)amino)-3-(1H-1,2,4-triazol-1-yl)propan-2-ol] it is 3.37 nM. Same read-out and setting: the figure for `Cn1cc(-c2ccnc3c2C(=O)N(CC(O)(Cn2cncn2)c2ccc(F)cc2F)C3)c(-c2ccc(F)cc2)n1` (centres unmarked) [Compound I-6, 6-(2-(2,4-difluorophenyl)-2-hydroxy-3-(1H-1,2,4-triazol-1-yl)propyl)-4-(3-(4-fluorophenyl)-1-methyl-1H-pyrazol-4-yl)-6,7-dihydro-5H-pyrrolo[3,4-b]pyridin-5-one] is 72.7 nM. Take `CN1Cc2nccc(-c3cn(CCC(O)(Cn4cncn4)c4ccc(F)cc4F)nc3-c3ccc(F)cc3)c2C1=O` (centres unmarked) [Compound I-2, 4-(1-(3-(2,4-difluorophenyl)-3-hydroxy-4-(1H-1,2,4-triazol-1-yl)butyl)-3-(4-fluorophenyl)-1H-pyrazol-4-yl)-6-methyl-6,7-dihydro-5H-pyrrolo[3,4-b]pyridin-5-one]: the concentration for half-maximal inhibition (IC50) was found to be 107 nM. Still for that read-out and setting: the figure for `Nc1nccc(-c2c(-c3ccc(F)cc3)ncn2C2CCN(CC[C@](O)(Cn3cncn3)c3ccc(F)cc3F)CC2)n1` [Compound I-53, (R)-4-(4-(5-(2-aminopyrimidin-4-yl)-4-(4-fluorophenyl)-1H-imidazol-1-yl)piperidin-1-yl)-2-(2,4-difluorophenyl)-1-(1H-1,2,4-triazol-1-yl)butan-2-ol] is 9.52 nM; for `Cn1cc(-c2ccncc2CNCC(O)(Cn2cncn2)c2ccc(F)cc2F)c(-c2ccc(F)cc2)n1` (centres unmarked) [Compound I-5, 2-(2,4-difluorophenyl)-1-(((4-(3-(4-fluorophenyl)-1-methyl-1H-pyrazol-4-yl)pyridin-3-yl)methyl)amino)-3-(1H-1,2,4-triazol-1-yl)propan-2-ol] it is 335 nM. For the compound `Nc1nccc(-c2c(-c3ccc(F)cc3)ncn2C2CCN(CC(O)(Cn3ccnn3)c3ccc(F)cc3F)CC2)n1` (centres unmarked) [Compound I-35, 1-(4-(5-(2-aminopyrimidin-4-yl)-4-(4-fluorophenyl)-1H-imidazol-1-yl)piperidin-1-yl)-2-(2,4-difluorophenyl)-3-(1H-1,2,3-triazol-1-yl)propan-2-ol], the half-inhibitory concentration (IC50) amounted to 6.8 nM. Same read-out and setting: the figure for `Cn1cc(-c2ccnc3c2C(=O)N(CC(O)(Cn2ccnc2)c2ccc(F)cc2F)C3)c(-c2ccc(F)cc2)n1` (centres unmarked) [Compound I-1, 6-(2-(2,4-difluorophenyl)-2-hydroxy-3-(1H-imidazol-1-yl)propyl)-4-(3-(4-fluorophenyl)-1-methyl-1H-pyrazol-4-yl)-6,7-dihydro-5H-pyrrolo[3,4-b]pyridin-5-one] is 46.3 nM.

`Nc1nccc(-c2c(-c3ccc(F)cc3)ncn2C2CCN(C(=O)CCNCC(O)(Cn3cncn3)c3ccc(F)cc3F)CC2)n1` (centres unmarked) [Compound I-77, 1-(4-(5-(2-aminopyrimidin-4-yl)-4-(4-fluorophenyl)-1H-imidazol-1-yl)piperidin-1-yl)-3-((2-(2,4-difluorophenyl)-2-hydroxy-3-(1H-1,2,4-triazol-1-yl)propyl)amino)propan-1-one]: the IC50 was 0.4 nM. Same read-out and setting: the figure for `Nc1nccc(-c2c(-c3ccc(F)cc3)ncn2C2CCN(CCC(=O)NC3CCN(CC(O)(Cn4cncn4)c4ccc(F)cc4F)CC3)CC2)n1` (centres unmarked) [Compound I-234, 3-(4-(5-(2-aminopyrimidin-4-yl)-4-(4-fluorophenyl)-1H-imidazol-1-yl)piperidin-1-yl)-N-(1-(2-(2,4-difluorophenyl)-2-hydroxy-3-(1H-1,2,4-triazol-1-yl)propyl)piperidin-4-yl)propanamide] is 8.12 nM; for `Cn1cc(-c2ccnc3c2C(=O)N(CCC2CCN(C[C@](O)(Cn4cncn4)c4ccc(F)cc4F)CC2)C3)c(-c2ccc(F)cc2)n1` (single isomer, unassigned) [Compound I-248] it is 4.69 nM; for `O=C(NCC(O)(Cn1cncn1)c1ccc(F)cc1F)c1cccc2c(-c3ccncc3)c(-c3ccc(F)cc3)nn12` (centres unmarked) [Compound I-151, N-(2-(2,4-difluorophenyl)-2-hydroxy-3-(1H-1,2,4-triazol-1-yl)propyl)-2-(4-fluorophenyl)-3-(pyridin-4-yl)pyrazolo[1,5-a]pyridine-7-carboxamide] it is 765 nM. In the case of `O[C@](CNCc1ccc2c(-c3ccncc3)c(-c3ccc(F)cc3)nn2c1)(Cn1cncn1)c1ccc(F)cc1F` [Compound I-252, (R)-2-(2,4-difluorophenyl)-1-(((2-(4-fluorophenyl)-3-(pyridin-4-yl)pyrazolo[1,5-a]pyridin-6-yl)methyl)amino)-3-(1H-1,2,4-triazol-1-yl)propan-2-ol], the IC50 turned out to be 2.07 nM. In the case of `Cn1cc(-c2ccncc2COCCC(O)(Cn2cncn2)c2ccc(F)cc2F)c(-c2ccc(F)cc2)n1` (centres unmarked) [Compound I-233, 2-(2,4-difluorophenyl)-4-((4-(3-(4-fluorophenyl)-1-methyl-1H-pyrazol-4-yl)pyridin-3-yl)methoxy)-1-(1H-1,2,4-triazol-1-yl)butan-2-ol], the half-inhibitory concentration (IC50) worked out at 65.9 nM. Consider `Nc1nccc(-c2c(-c3ccc(F)cc3)ncn2C2CCN(CC(=O)NCC(O)(Cn3cncn3)c3ccc(F)cc3F)CC2)n1` (centres unmarked) [Compound I-71, 2-(4-(5-(2-aminopyrimidin-4-yl)-4-(4-fluorophenyl)-1H-imidazol-1-yl)piperidin-1-yl)-N-(2-(2,4-difluorophenyl)-2-hydroxy-3-(1H-1,2,4-triazol-1-yl)propyl)acetamide], for which the IC50 came out at 9.33 nM.

The test system of a further assay is CaCi2. The assay is described as follows: Antifungal sensitivity testing (broth microdilution MIC). The following applies: CaCi2, 96-well broth microdilution, compounds in DMSO. Type of assay: cell-based. As for the experimental part:
Minimum inhibitory concentrations (MICs) were determined in flat bottom, 96-well plate format using a modified broth microdilution protocol as previously described (Singh et al., PLoS Pathog. 5, e1000532 (2009); LaFayette et al., PLoS Pathog. 6, 79-80 (2010)). Compounds were formulated in dimethyl sulfoxide (DMSO, Sigma-Aldrich Co.). Each compound was tested in duplicate in at least two independent experiments.
In general terms: Dilution methods test growth across graded concentrations, often in twofold steps.
`OC(Cn1cncn1)(c1ccc(F)cc1F)C(F)(F)c1ccc(-c2ccc(CNCc3ccc4c(-c5ccncc5)c(-c5ccc(F)cc5)nn4c3)cc2)cn1` (centres unmarked) [Compound I-262, 2-(2,4-difluorophenyl)-1,1-difluoro-1-(5-(4-((((2-(4-fluorophenyl)-3-(pyridin-4-yl)pyrazolo[1,5-a]pyridin-6-yl)methyl)amino)methyl)phenyl)pyridin-2-yl)-3-(1H-1,2,4-triazol-1-yl)propan-2-ol] came in with an MIC50 of 0.293 µM (≈ 0.222 µg/mL). This counts as sub-micromolar. Take `[2H]C([2H])(NCC(O)(Cn1cncn1)c1ccc(F)cc1F)c1ccc2c(-c3ccncc3)c(-c3ccc(F)cc3)nn2c1` (centres unmarked) [Compound I-261, 2-(2,4-difluorophenyl)-1-(((2-(4-fluorophenyl)-3-(pyridin-4-yl)pyrazolo[1,5-a]pyridin-6-yl)methyl-d2)amino)-3-(1H-1,2,4-triazol-1-yl)propan-2-ol]: the MIC50 turned out to be 0.195 µM (≈ 0.109 µg/mL). This MIC50 lies about 1.5-fold lower than the previous one.
